Where no end group is shown, it is not given here.
Legend:
HeLa cells [1] = settings: HeLa, 48 h
Description: For this, we use PE-III, the third domain of the Pseudomonas exotoxin. This 25 kDa enzyme ADP ribosylates ribosomal elongation factor 2, thereby blocking protein synthesis and triggering apoptosis. […] Thus, apoptosis will occur only if an exogenous agent, such as a peptide, enables cytosolic delivery of the 4 × 3 nm PE-III protein, Figure 2A.
Comparison of peptide concentration midpoints requires a constant concentration of PE-III in each experiment. […] The major disadvantage of the PE-III assay to detect delivery is that only a few molecules of active PE-III delivered to the cytosol[36] will produce a positive result. To partly mitigate this effect in the assays described below, we use a constant 40 nM PE-III. At such a low concentration, each endosome will contain an average of fewer than one PE-III molecule if we assume passive entrapment of the cargo (see the Supporting Information).
The no treatment (no tx) control group contained cells but no peptide or PE-III enzyme. The Alamar Blue intensity of this group was defined as 100% viability. Media alone without cells was defined as 0% viability.
The concentration range used for each peptide was adjusted according to preliminary measurements of activity in this assay. We assessed PE-III delivery by measuring cell viability using Alamar Blue.
Fifteen thousand HeLa cells were seeded in a clear bottom, black-walled 96-well plate overnight at 37 °C with 5% CO2 in complete media (DMEM + phenol red +10% FBS + antimycotic/antibiotic + nonessential amino acids). Cells were then washed once in PBS and treated with PE-III and peptide in serum-free media without phenol red, with a 50 μL total volume. After a 2-day incubation with treatment, 50 μL of 10% Alamar blue reagent diluted in serum-free media was added directly to each well (5% Alamar blue final) and incubated for 1.5 h at 37 °C. The plate was then read at 550 equiv/590 em on a Biotek plate reader. Untreated cells were used as a negative control, and MelP5-treated cells served as a positive control.

HeLa cells [2] = assay: Direct cytotoxicity without PE-III cargo (Alamar Blue); type: cell-based, human; settings: 200 μM peptide, no PE-III, 48 h
Experimental: The no treatment (no tx) control group contained cells but no peptide or PE-III enzyme. The Alamar Blue intensity of this group was defined as 100% viability. Media alone without cells was defined as 0% viability. […] When 200 μM D-pHD108 and 40 nM PE-III were added together, essentially 100% loss of cell viability was observed, showing that PE-III was effectively delivered to the cytosol by the pHD peptide. […] This observation provides strong support for the hypothesis that PE-III delivery occurs via endocytosis and that it is dependent on endosomal acidification because the L-amino acid peptide, but not the D-amino acid peptide, is susceptible to acidification-dependent proteolytic degradation which occurs in endosomal compartments.
We tested for direct toxicity of the acylated pHD peptides by incubating the same concentrations of acylated pHD peptide variants with cells in the absence of PE-III. […] Thus, all of the apoptosis observed in the PE-III delivery assays was due to the cytosolic delivery of intact PE-III and not to the direct action of the acylated pHD peptide.

RAW macrophages = settings: read-out: EC50 (peptide concentration midpoint for PE-III delivery), PE-III constant, 48 h, Alamar Blue

Compound	loss of cell viability (HeLa cells [1]; 200 μM peptide + 40 nM PE-III, 37 °C, Alamar Blue) [%]	effect on cell viability, peptide alone (HeLa cells [2])	EC50 (RAW macrophages) [µM]	PE-III delivery/apoptosis (HeLa cells [1]; same concentration range as unmodified pHD108, 40 nM PE-III)
CC[C@@H](C)[C@@H](NC(=O)CN)C(=O)NCC(=O)N[C@H](CCC(=O)O)C(=O)N[C@@H](C(=O)N[C@H](CC(C)C)C(=O)N[C@H](Cc1c[nH]cn1)C(=O)N[C@H](CCC(=O)O)C(=O)N[C@H](CC(C)C)C(=O)N[C@H](C)C(=O)N[C@H](CCC(=O)O)C(=O)NCC(=O)N[C@H](CC(C)C)C(=O)N1CCC[C@@H]1C(=O)N[C@H](CCC(=O)O)C(=O)N[C@H](CC(C)C)C(=O)N[C@H](CCC(N)=O)C(=O)N[C@H](CCC(=O)O)C(=O)N[C@H](Cc1c[nH]c2ccccc12)C(=O)N[C@@H](C(=O)N[C@H](Cc1c[nH]cn1)C(=O)N[C@H](C)C(=O)N[C@H](C)C(=O)N[C@H](CCC(N)=O)C(=O)N[C@H](CCC(N)=O)C(=O)N[C@H](CC(C)C)C(N)=O)[C@H](C)CC)C(C)C [D-pHD108]	~100	no effect on cell viability	75	–
PLGRPQLRRGQF-NH2 [ONEG, reference compound]	–	–	–	no measurable PE-III delivery/apoptosis
